Reference: patent US20100267706A1, “Compounds, Compositions and Methods Comprising Pyridazine Derivatives” (Institute for OneWorld Health, priority 2009, published 2010)

biological target: T1, CFTR (Homo sapiens, UniProt P13569); assay: T84 assay (FLIPR membrane potential, forskolin/IBMX-stimulated CFTR channel activity); format: cell-based; conditions: Human colonic T84 cells; average of at least 2 runs unless annotated n = 1
T1 construct: host or cells: Human colonic T84 cells
Method: (§1) For example, Human colonic T84 cells can be acquired from the European Collection of Cell Cultures (ECACC) and grown in standard culture conditions as described by the supplier. On the day before assay 25,000 T84 cells per well are plated into standard black walled, clear bottom 384-well assay plates in standard growth medium consisting of DMEM:F12 with 10% FBS and incubated overnight. On the day of the assay the plates are washed using a standard assay buffer (HBSS with 10 mM Hepes) and incubated for 15 minutes in serum free cell culture medium before the addition of a commercially available membrane potential sensitive fluorescent dye (FLIPR Red membrane potential dye, Molecular Devices Corporation). T84 cells are incubated with the FLIPR Red membrane potential dye for 45 minutes in the presence and absence of test compound before being transferred to a commercially available fluorescence imaging plate reader (FLIPR384, Molecular Devices Corporation). Fluorescence levels are monitored continuously every second for 150 seconds; after an initial 10 second baseline, CFTR channel activity is stimulated through the addition of 10 μM forskolin in the presence of 100 μM of the phosphodiesterase inhibitor iso-butyl-methylxanthine (IBMX). Addition of the forskolin leads to the activation of intracellular adenylyl cylase 1, elevating cAMP levels and results in the phosphorylation and opening of CFTR anion channels. CFTR channel opening causes chloride ion efflux and subsequent depolarization of the cells, which is measured by an increase in fluorescence. CFTR inhibitor compounds prevent cell depolarization and the associated increase in fluorescence.
as §1, with “Human colonic” for “For example, Human colonic”, “T84 cells are acquired from” for “T84 cells can be acquired from”, “(ECACC) and are grown in” for “(ECACC) and grown in”

T1 sequence (P13569 whole entry): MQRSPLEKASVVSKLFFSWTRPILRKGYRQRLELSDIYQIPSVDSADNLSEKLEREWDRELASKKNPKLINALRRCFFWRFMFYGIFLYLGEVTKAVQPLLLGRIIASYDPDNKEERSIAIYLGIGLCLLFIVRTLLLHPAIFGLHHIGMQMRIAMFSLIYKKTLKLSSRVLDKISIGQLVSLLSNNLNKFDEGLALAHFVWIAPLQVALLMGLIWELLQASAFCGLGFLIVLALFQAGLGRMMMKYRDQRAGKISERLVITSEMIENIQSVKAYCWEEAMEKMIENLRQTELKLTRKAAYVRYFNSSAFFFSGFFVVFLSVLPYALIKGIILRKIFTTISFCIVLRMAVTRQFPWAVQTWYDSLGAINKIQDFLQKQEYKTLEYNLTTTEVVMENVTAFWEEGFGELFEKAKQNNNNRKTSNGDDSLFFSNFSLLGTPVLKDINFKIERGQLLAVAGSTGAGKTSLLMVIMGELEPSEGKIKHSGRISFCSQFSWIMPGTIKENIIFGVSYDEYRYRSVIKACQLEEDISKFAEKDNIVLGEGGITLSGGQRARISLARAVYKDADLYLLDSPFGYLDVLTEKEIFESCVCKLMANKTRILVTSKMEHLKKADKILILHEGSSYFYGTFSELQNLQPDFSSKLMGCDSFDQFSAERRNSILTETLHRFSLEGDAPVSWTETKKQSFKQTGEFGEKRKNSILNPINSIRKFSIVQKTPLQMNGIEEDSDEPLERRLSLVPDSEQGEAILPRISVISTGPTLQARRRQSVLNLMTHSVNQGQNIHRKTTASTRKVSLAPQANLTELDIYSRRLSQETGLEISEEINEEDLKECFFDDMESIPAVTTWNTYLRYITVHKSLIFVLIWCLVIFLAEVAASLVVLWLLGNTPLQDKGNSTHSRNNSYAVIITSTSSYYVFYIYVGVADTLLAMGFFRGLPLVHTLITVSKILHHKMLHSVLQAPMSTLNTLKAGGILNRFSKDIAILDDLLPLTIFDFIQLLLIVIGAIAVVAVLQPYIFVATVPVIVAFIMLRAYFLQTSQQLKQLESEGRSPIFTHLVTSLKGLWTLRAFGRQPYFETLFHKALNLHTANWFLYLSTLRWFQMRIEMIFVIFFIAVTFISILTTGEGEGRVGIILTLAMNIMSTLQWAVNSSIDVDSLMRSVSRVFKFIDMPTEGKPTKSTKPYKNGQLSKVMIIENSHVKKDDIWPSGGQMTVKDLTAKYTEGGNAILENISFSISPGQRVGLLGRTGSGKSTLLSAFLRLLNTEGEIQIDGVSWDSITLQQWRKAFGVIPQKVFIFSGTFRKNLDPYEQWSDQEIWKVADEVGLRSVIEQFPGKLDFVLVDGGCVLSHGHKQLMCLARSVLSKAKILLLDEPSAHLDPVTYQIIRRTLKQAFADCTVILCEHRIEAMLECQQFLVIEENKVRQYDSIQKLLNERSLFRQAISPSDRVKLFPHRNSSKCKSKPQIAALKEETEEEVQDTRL

| Structure (SMILES) | IC50 |
| --- | --- |
| O=C(c1cc(-c2cc(Cl)c(O)c(Cl)c2)nnc1OCCc1ccc(Cl)cc1)N(CCO)Cc1ccccc1 [Compound 11, N-benzyl-3-(4-chlorophenethoxy)-6-(3,5-dichloro-4-hydroxyphenyl)-N-(2-hydroxyethyl)pyridazine-4-carboxamide] | 8.26 µM |
| O=C(c1cc(-c2cc(Cl)c(O)c(Cl)c2)nnc1OCCc1ccc(Cl)cc1)N(CCO)Cc1cccnc1 [Compound 24, 3-(4-chlorophenethoxy)-6-(3,5-dichloro-4-hydroxyphenyl)-N-(2-hydroxyethyl)-N-(pyridin-3-ylmethyl)pyridazine-4-carboxamide] | 19.4 µM |
| O=C(c1cc(-c2cc(Cl)c(O)c(Cl)c2)nnc1OCCc1ccc(Cl)cc1)N(CCO)Cc1ccccn1 [Compound 25, 3-(4-chlorophenethoxy)-6-(3,5-dichloro-4-hydroxyphenyl)-N-(2-hydroxyethyl)-N-(pyridin-2-ylmethyl)pyridazine-4-carboxamide] | 14.7 µM |
| O=C(c1cc(-c2cc(Cl)c(O)c(Cl)c2)nnc1OCCc1ccc(Cl)cc1)N(Cc1ccccc1)CC(F)(F)F [Compound 26, N-benzyl-3-(4-chlorophenethoxy)-6-(3,5-dichloro-4-hydroxyphenyl)-N-(2,2,2-trifluoroethyl)pyridazine-4-carboxamide] | 23.5 µM |
| CCN(Cc1ccccc1)C(=O)c1cc(-c2cc(Cl)c(O)c(Cl)c2)nnc1OCCc1ccc(Cl)cc1 [Compound 27, N-benzyl-3-(4-chlorophenethoxy)-6-(3,5-dichloro-4-hydroxyphenyl)-N-ethylpyridazine-4-carboxamide] | 17 µM |
| CN(Cc1ccccc1)C(=O)c1cc(-c2cc(Cl)c(O)c(Cl)c2)nnc1OCCc1ccc(Cl)cc1 [Compound 28, N-benzyl-3-(4-chlorophenethoxy)-6-(3,5-dichloro-4-hydroxyphenyl)-N-methylpyridazine-4-carboxamide] | 10.2 µM |
| COCCN(Cc1ccccc1)C(=O)c1cc(-c2cc(Cl)c(O)c(Cl)c2)nnc1OCCc1ccc(Cl)cc1 [Compound 29, N-benzyl-3-(4-chlorophenethoxy)-6-(3,5-dichloro-4-hydroxyphenyl)-N-(2-methoxyethyl)pyridazine-4-carboxamide] | 8.5 µM |
| O=C(c1cc(-c2cc(Cl)c(O)c(Cl)c2)nnc1OCCc1ccc(Cl)cc1)N(CCO)Cc1ccc(Cl)c(Cl)c1 [Compound 30, 3-(4-chlorophenethoxy)-6-(3,5-dichloro-4-hydroxyphenyl)-N-(3,4-dichlorobenzyl)-N-(2-hydroxyethyl)pyridazine-4-carboxamide] | 19 µM |
| COc1ccc(CN(CCO)C(=O)c2cc(-c3cc(Cl)c(O)c(Cl)c3)nnc2OCCc2ccc(Cl)cc2)cc1 [Compound 31, 3-(4-chlorophenethoxy)-6-(3,5-dichloro-4-hydroxyphenyl)-N-(2-hydroxyethyl)-N-(4-methoxybenzyl)pyridazine-4-carboxamide] | 25.2 µM |
| O=C(c1cc(-c2cc(Cl)c(O)c(Cl)c2)nnc1OCCc1ccc(Cl)cc1)N(CCO)Cc1ccc2c(c1)OCO2 [Compound 32, N-(benzo[d][1,3]dioxol-5-ylmethyl)-3-(4-chlorophenethoxy)-6-(3,5-dichloro-4-hydroxyphenyl)-N-(2-hydroxyethyl)pyridazine-4-carboxamide] | 16.1 µM |
| COc1ccc(CN(CCO)C(=O)c2cc(-c3cc(Cl)c(O)c(Cl)c3)nnc2OCCc2ccc(Cl)cc2)cc1OC [Compound 33, 3-(4-chlorophenethoxy)-6-(3,5-dichloro-4-hydroxyphenyl)-N-(3,4-dimethoxybenzyl)-N-(2-hydroxyethyl)pyridazine-4-carboxamide] | 13.7 µM |
| CC(C)(C)c1ccc(CNC(=O)c2cc(-c3cc(Cl)c(O)c(Cl)c3)nnc2OCCc2ccc(Cl)cc2)cc1 [Compound 34, N-(4-tert-butylbenzyl)-3-(4-chlorophenethoxy)-6-(3,5-dichloro-4-hydroxyphenyl)pyridazine-4-carboxamide] | 20.1 µM |

tested on: cholera toxin (CTX)-induced net fluid secretion in small intestine loops; assay: not given; format: in vivo, mice (CD1 strain); conditions: 4 hours

| Structure (SMILES) | closed loop % inhibition@100 μg |
| --- | --- |
| O=C(c1cc(-c2cc(Cl)c(O)c(Cl)c2)nnc1OCCc1ccc(Cl)cc1)N(CCO)Cc1ccccc1 [Compound 11, N-benzyl-3-(4-chlorophenethoxy)-6-(3,5-dichloro-4-hydroxyphenyl)-N-(2-hydroxyethyl)pyridazine-4-carboxamide] | 63.2% |
